From patent US20250282760A1 (Merck Sharp & Dohme LLC, priority 2022, published 2025) come the findings set out here.

In the test the target is T1, human OX2R (Homo sapiens, UniProt O43614).
T1 construct: expressed in transfected cells; host or cells: Chinese hamster ovary (CHO) cells, kept under G418 selection
T1 sequence (O43614 1-444): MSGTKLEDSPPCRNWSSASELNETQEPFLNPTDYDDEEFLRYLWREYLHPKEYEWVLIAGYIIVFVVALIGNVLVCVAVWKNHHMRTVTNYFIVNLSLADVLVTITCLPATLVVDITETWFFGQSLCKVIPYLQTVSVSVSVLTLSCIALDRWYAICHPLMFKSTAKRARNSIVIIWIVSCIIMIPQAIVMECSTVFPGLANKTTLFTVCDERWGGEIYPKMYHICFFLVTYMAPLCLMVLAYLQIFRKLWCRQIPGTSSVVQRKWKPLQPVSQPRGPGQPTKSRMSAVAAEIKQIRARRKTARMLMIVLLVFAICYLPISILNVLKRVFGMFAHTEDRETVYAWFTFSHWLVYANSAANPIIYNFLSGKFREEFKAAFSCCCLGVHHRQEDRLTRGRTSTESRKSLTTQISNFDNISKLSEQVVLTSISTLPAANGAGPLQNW
The test is described as follows: IPOne (IP-1 accumulation) assay of orexin receptor agonist activity in CHO cells expressing human OX2R. It counts as cell-based. The note with it: for IC50: CHO cells expressing human OX2R, IP-One assay, 2 hours incubation, four parameter logistic fit, read-out: hOX2R_IP IC50; for Emax: CHO, percent activity at maximum tested concentration, relative to reference compound at 1 uM (100% activity) for human OX2R. An excerpt: The utility of the compounds in accordance with the present invention as orexin receptor OX1R and/or OX2R agonists may be readily determined without undue experimentation by methodology well known in the art. Both the OX1R and/or OX2R G-coupled protein receptors (GPCRs) couple through the Gαq signaling pathway, which ultimately promotes calcium mobilization via inositol triphosphate (IP3) production. […] The utility of the compounds in accordance with the present invention as orexin receptor OX1R and/or OX2R agonists may be determined utilizing this assay.
In a typical experiment, the OX1 and OX2 receptor agonist activity is determined in accordance with the following general experimental method. Chinese hamster ovary (CHO) cells expressing human OX1R and/or the human OX2R were grown in Iscove's modified DMEM containing glutaMAX™, 1% G418, 100 U/mL penicillin, 100 μg/mL streptomycin and 10% heat-inactivated qualified fetal bovine serum (FBS). […] During this incubation, IP-one detection reagents were prepared (38:1:1 lysis buffer:D2:AB-cryptate reagents).
For each compound, data were fit to a four parameter logistic fit (ActivityBase software) and the EC50 was reported as the inflection point of the resulting curve. Percent effect for each test compound was determined as the percentage of sample raw value/mean max effect, where the mean max effect was derived from the mean raw value of 32 control wells per assay plate (using Orexin A (cat #003-30) at 1 μM for human OX1R and a reference compound at 1 uM with 100% activity previously established by comparison to Orexin A for human OX2R). The intrinsic orexin receptor agonist activity of a compound which may be used in the present invention may be determined by these assays.

As to `CCc1cc(-c2ccco2)ccc1CNC(=O)[C@H]1CN(S(=O)(=O)c2ccccc2)C[C@@H](C)N1C(=O)C(C)C` (relative stereo) [Example 47-6, cis-N-(2-ethyl-4-(furan-2-yl)benzyl)-1-isobutyryl-6-methyl-4-(phenylsulfonyl)piperazine-2-carboxamide], the concentration for half-maximal inhibition (IC50) stood at 10.9 nM and the maximal effect (Emax) is 99.5%.
Take `Cc1c(CNC(=O)[C@H]2CN(S(=O)(=O)c3ccccc3)C[C@@H](C)N2C(=O)C(C)C)ccc(-c2ccco2)c1F` (relative stereo) [Example 51, cis-N-(3-fluoro-4-(furan-2-yl)-2-methylbenzyl)-1-isobutyryl-6-methyl-4-(phenylsulfonyl)piperazine-2-carboxamide]: the IC50 was found to be 85.7 nM and the Emax is 99.8%.
The corresponding values for `Cc1cc(-c2ccco2)cnc1CNC(=O)[C@H]1CN(S(=O)(=O)c2ccccc2)C[C@@H](C)N1C(=O)C(C)C` (relative stereo) [Example 55, cis-N-((5-(furan-2-yl)-3-methylpyridin-2-yl)methyl)-1-isobutyryl-6-methyl-4-(phenylsulfonyl)piperazine-2-carboxamide] are 2980 nM and 93.5%.
For `C[C@@H]1CN(S(=O)(=O)c2ccccc2)C[C@H](C(=O)NCc2ccc3ccccc3c2)N1C(=O)c1cccs1` (relative stereo) [Example 57, cis-6-methyl-N-(naphthalen-2-ylmethyl)-4-(phenylsulfonyl)-1-(thiophene-2-carbonyl)piperazine-2-carboxamide] the same measures were 2540 nM and 94.3%.
As to `CC[C@@H]1CN(S(=O)(=O)c2ccccc2)C[C@H](C(=O)NCc2ccc(-c3ccco3)cc2)N1C(=O)C(C)C` (relative stereo) [Example 71, cis-6-ethyl-N-(4-(furan-2-yl)benzyl)-1-isobutyryl-4-(phenylsulfonyl)piperazine-2-carboxamide], the IC50 came out at 244 nM and the Emax amounted to 100%.
For the compound `CC(C)C(=O)N1[C@@H](C(=O)NCc2ccc(-c3ccco3)cc2)CN(S(=O)(=O)c2ccccc2)C[C@H]1C(F)(F)F` (relative stereo) [Example 78, cis-N-(4-(furan-2-yl)benzyl)-1-isobutyryl-4-(phenylsulfonyl)-6-(trifluoromethyl)piperazine-2-carboxamide], the IC50 amounted to 2670 nM and the maximum response (Emax) is 97.1%.
The corresponding values for `CC(C)C(=O)N1[C@H](C)CN(S(=O)(=O)c2ccccc2)C[C@@H]1C(=O)NCc1ccc(OC(C)(F)F)cc1` (single isomer, unassigned) [Example 19-4-1] are 22.7 nM and 100%.
`CC(C)C(=O)N1[C@@H](C)CN(S(=O)(=O)c2ccccc2)C[C@H]1C(=O)NCc1ccc(OC(C)(F)F)cc1` (single isomer, unassigned) [Example 19-4-2]: the IC50 is 9100 nM and the maximum response (Emax) came to 95.6%.
For `CC(C)C(=O)N1[C@H](C)CN(S(=O)(=O)c2ccccc2)C[C@@H]1C(=O)NCc1cnc(-c2ccco2)cn1` (single isomer, unassigned) [Example 35, cis-N-((5-(furan-2-yl)pyrazin-2-yl)methyl)-1-isobutyryl-6-methyl-4-(phenylsulfonyl)piperazine-2-carboxamide] the same measures were 504 nM and 99.7%.
Regarding `CC(C)C(=O)N1[C@H](C)CN(S(=O)(=O)c2ccccc2)C[C@@H]1C(=O)NCc1ncc(-c2ccco2)cn1` (single isomer, unassigned) [Example 39], the IC50 worked out at 6280 nM and the Emax was 97.8%.
The corresponding values for `CCC(F)(F)Oc1ccc(CNC(=O)[C@H]2CN(S(=O)(=O)c3ccccc3)C[C@@H](C)N2C(=O)C(C)C)cc1` (single isomer, unassigned) [Example 61, cis-N-(4-(1,1-difluoropropoxy)benzyl)-1-isobutyryl-6-methyl-4-(phenylsulfonyl)piperazine-2-carboxamide] are 100 nM and 93.2%.
With `CC(C)C(=O)N1[C@H](C)CN(S(=O)(=O)c2ccccc2)C[C@@H]1C(=O)NCc1ccc(CC(C)(F)F)cc1` (single isomer, unassigned) [Example 66], the IC50 turned out to be 2230 nM and the maximum response (Emax) stood at 97.9%.
The corresponding values for `O=C(NCc1ccc2ccccc2c1)C1CN(S(=O)(=O)c2ccccc2)CCN1C(=O)c1cccs1` (stereo not drawn) [Example 6, N-(naphthalen-2-ylmethyl)-4-(phenylsulfonyl)-1-(thiophene-2-carbonyl)piperazine-2-carboxamide] are 2260 nM and 94.3%.
Consider `CCC(C)C(=O)N1CCN(S(=O)(=O)c2ccccc2)CC1C(=O)NCc1ccc2ccccc2c1` (stereo not drawn) [Example 10-1, 1-(2-methylbutanoyl)-N-(naphthalen-2-ylmethyl)-4-(phenylsulfonyl)piperazine-2-carboxamide], for which the half-inhibitory concentration (IC50) amounted to 4310 nM and the Emax turned out to be 101%.
Regarding `CCC(=O)N1CCN(S(=O)(=O)c2ccccc2)CC1C(=O)NCc1ccc2ccccc2c1` (stereo not drawn) [Example 10-2, N-(naphthalen-2-ylmethyl)-4-(phenylsulfonyl)-1-propionylpiperazine-2-carboxamide], the IC50 was 8900 nM and the Emax is 97.4%.
As for `CCCC(=O)N1CCN(S(=O)(=O)c2ccccc2)CC1C(=O)NCc1ccc2ccccc2c1` (stereo not drawn) [Example 10-3, 1-butyryl-N-(naphthalen-2-ylmethyl)-4-(phenylsulfonyl)piperazine-2-carboxamide], the IC50 is 12200 nM and the maximal effect (Emax) was 87.8%.
For `CC(C)C(=O)N1CCN(S(=O)(=O)c2ccccc2)CC1C(=O)NCc1ccc2ccccc2c1` (stereo not drawn) [Example 10-4, 1-isobutyryl-N-(naphthalen-2-ylmethyl)-4-(phenylsulfonyl)piperazine-2-carboxamide] the same measures were 2610 nM and 98.7%.
The corresponding values for `O=C(NCc1ccc2ccccc2c1)C1CN(S(=O)(=O)c2ccccc2)CCN1C(=O)C1CC1` (stereo not drawn) [Example 10-5, 1-(cyclopropanecarbonyl)-N-(naphthalen-2-ylmethyl)-4-(phenylsulfonyl)piperazine-2-carboxamide] are 8990 nM and 98.7%.
The corresponding values for `O=C(NCc1ccc2ccccc2c1)C1CN(S(=O)(=O)c2ccccc2)CCN1C(=O)C1CCC1` (stereo not drawn) [Example 10-6, 1-(cyclobutanecarbonyl)-N-(naphthalen-2-ylmethyl)-4-(phenylsulfonyl)piperazine-2-carboxamide] are 5000 nM and 96.8%.
`O=C(NCc1ccc2ccccc2c1)C1CN(S(=O)(=O)c2ccccc2)CCN1C(=O)c1nccs1` (stereo not drawn) [Example 10-7, N-(naphthalen-2-ylmethyl)-4-(phenylsulfonyl)-1-(thiazole-2-carbonyl)piperazine-2-carboxamide]: the IC50 was 1870 nM and the maximum response (Emax) is 98.9%.
Turning to `O=C(NCc1ccc2ccccc2c1)C1CN(S(=O)(=O)c2ccccc2)CCN1C(=O)c1ccsc1` (stereo not drawn) [Example 10-8, N-(naphthalen-2-ylmethyl)-4-(phenylsulfonyl)-1-(thiophene-3-carbonyl)piperazine-2-carboxamide], the IC50 is 4670 nM and the Emax stood at 90%.
`O=C(NCc1ccc2ccccc2c1)C1CN(S(=O)(=O)c2ccccc2)CCN1C(=O)c1ccco1` (stereo not drawn) [Example 10-9, 1-(furan-2-carbonyl)-N-(naphthalen-2-ylmethyl)-4-(phenylsulfonyl)piperazine-2-carboxamide]: the half-inhibitory concentration (IC50) worked out at 6170 nM and the maximal response (Emax) came out at 93.8%.
For `O=C(NCc1ccc2ccccc2c1)C1CN(S(=O)(=O)c2ccccc2)CCN1C(=O)c1cncs1` (stereo not drawn) [Example 10-10, N-(naphthalen-2-ylmethyl)-4-(phenylsulfonyl)-1-(thiazole-5-carbonyl)piperazine-2-carboxamide] the same measures were 11700 nM and 93.9%.
Take `Cc1ccccc1C(=O)N1CCN(S(=O)(=O)c2ccccc2)CC1C(=O)NCc1ccc2ccccc2c1` (stereo not drawn) [Example 10-11, 1-(2-methylbenzoyl)-N-(naphthalen-2-ylmethyl)-4-(phenylsulfonyl)piperazine-2-carboxamide]: the IC50 is 100000 nM and the maximal effect (Emax) is 19.4%.

For orientation: IC50 means the concentration that inhibits the measured activity by half. Broadly, the Emax is the greatest response seen or fitted, relative to the assay's reference.
